“Also recorded” adds a separate entry of the source.
Test system: Vero cells
Test: not given

| Compound | cytotoxicity at higher concentrations |
| --- | --- |
| CC(C)(C)Nc1nccnc1C(=O)[O-].[Na+] [compound 56, Sodium 3-(tert-butylamino)pyrazine-2-carboxylate] | ~ 50% |

Test system: M. bovis BCG Pasteur ATCC 35734
Test: not given
Type: cell-based, Mycobacterium bovis BCG

| Compound | antimycobacterial activity (in words) | fold less potent than POA [fold] | MIC50 (MIC, concentration that inhibits fifty percent of growth) [µM] |
| --- | --- | --- | --- |
| NS(=O)(=O)c1cnccn1 [compound 14] | inactive or weakly active | – | – |
| O=C([O-])c1nccnc1N1CCOCC1.[Na+] [compound 64, Sodium 3-(morpholino)pyrazine-2-carboxylate] | abolished activity | – | – |
| O=C([O-])c1cncc(-c2ccccc2)n1.[Na+] [compound 40, Sodium 6-phenylpyrazine-2-carboxylate] | – | ~2 | – |
| Cc1ccccc1-c1nccnc1C(=O)[O-].[Na+] [compound 36, Sodium 3-(o-tolyl)pyrazine-2-carboxylate] | completed obliterated activity | – | – |
| O=C([O-])c1cnc(NC2CCC2)cn1.[Na+] [compound 48, Sodium 5-(cyclobutylamino)pyrazine-2-carboxylate] | Loss of potency | – | – |
| CCN(CC)c1nccnc1C(=O)[O-].[Na+] [compound 58, Sodium 3-(diethylamino)pyrazine-2-carboxylate] | loss of activity | – | – |
| O=C([O-])c1cnc(-c2ccccc2)cn1.[Na+] [compound 39, Sodium 5-(phenyl)pyrazine-2-carboxylate] | eliminated activity | – | – |
| O=C([O-])c1nccnc1N1CCSCC1.[Na+] [compound 65, Sodium 3-(thiomorpholino)pyrazine-2-carboxylate] | abolished activity | – | – |
| O=C([O-])c1nccnc1N1CCCC1.[Na+] [compound 62, Sodium 3-(pyrrolidine-1-yl)pyrazine-2-carboxylate] | abolished activity | – | – |
| Nc1cncc(C(=O)O)n1 [compound 25, 6-amino-POA] | loss of activity | – | – |
| CCCCNc1cnc(C(=O)[O-])cn1.[Na+] [compound 72, Sodium 5-(n-butylamino)pyrazine-2-carboxylate] | – | – | 400 |
| O=C([O-])c1cncc(NC(=O)C2CCCCC2)n1.[Na+] [compound 80, Sodium 6-(cyclohexanecarboxamido)pyrazine-2-carboxylate] | obliterated activity | – | – |
| c1cnc(-c2nnn[nH]2)cn1 [compound 12, 2-(1H-Tetrazol-5-yl)pyrazine] | inactive or weakly active | – | – |
| CCCNc1cnc(C(=O)[O-])cn1.[Na+] [compound 70, Sodium 5-(n-propylamino)pyrazine-2-carboxylate] | Loss of potency | – | – |
| CC(=O)NS(=O)(=O)c1cnccn1 [compound 15, N-(Pyrazin-2-ylsulfonyl)acetamide] | inactive or weakly active | – | – |
| CC(C)Nc1cnc(C(=O)[O-])cn1.[Na+] [compound 71, Sodium 5-(2-propylamino)pyrazine-2-carboxylate] | Loss of potency | – | – |
| CCNc1cnc(C(=O)[O-])cn1.[Na+] [compound 42, Sodium 5-(ethylamino)pyrazine-2-carboxylate] | Loss of potency | – | – |
| O=C([O-])c1nccnc1N1CCC2(CC1)CC2.[Na+] [compound 66, Sodium 3-(6-azaspiro[2,5]octan-6-yl)pyrazine-2-carboxylate] | abolished activity | – | – |
| CCN(CC)c1cnc(C(=O)[O-])cn1.[Na+] [compound 73, Sodium 5-(diethylamino)pyrazine-2-carboxylate] | equipotent to the parent POA | – | – |
| O=C([O-])c1cnc(NC2CCCC2)cn1.[Na+] [compound 76, Sodium 5-(cyclopentylamino)pyrazine-2-carboxylate] | Loss of potency | – | – |
| CC(=O)c1cnccn1 [compound 16] | eliminated activity | – | – |
| NC(=S)c1cnccn1 [compound 13] | inactive or weakly active | – | – |
| O=C([O-])c1nccnc1N1CCCCC1.[Na+] [compound 63, Sodium 3-(piperidin-1-yl)pyrazine-2-carboxylate] | abolished activity | – | – |

Target: Mtb PanD (Mycobacterium tuberculosis, UniProt P9WIL3)
Test: biochemical
Type: binding

Sequence of Mtb PanD (P9WIL3 25-139): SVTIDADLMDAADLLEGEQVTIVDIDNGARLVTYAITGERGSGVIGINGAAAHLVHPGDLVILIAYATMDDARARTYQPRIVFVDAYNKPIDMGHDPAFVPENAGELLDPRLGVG
Sequence of Mtb PanD (P9WIL3 1-24): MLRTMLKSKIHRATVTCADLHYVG

| Compound | PanD binding (in words) | Kd [µM] |
| --- | --- | --- |
| CCN(CC)c1nccnc1C(=O)[O-].[Na+] [compound 58, Sodium 3-(diethylamino)pyrazine-2-carboxylate] | no binding; also recorded: did not bind at all; also recorded: did not bind to PanD | – |
| Nc1cnc(C(=O)O)cn1 [compound 24] | – | 37 to 47 |
| Nc1nccnc1C(=O)O [compound 23] | – | 37 to 47 |

Test system: M. bovis BCG mutant POA2 (PanD Leu132Arg)
Test: not given
Type: cell-based, Mycobacterium bovis BCG

| Compound | shift in growth inhibition potency against PanD mutant vs wildtype (in words) |
| --- | --- |
| O=C([O-])c1nccnc1Nc1ccccc1.[Na+] [compound 59, Sodium 3-(anilino)pyrazine-2-carboxylate] | moderate shift |
| CCCNc1nccnc1C(=O)[O-].[Na+] [compound 54, Sodium 3-(propylamino)pyrazine-2-carboxylate] | moderate shift |
| Nc1cnc(C(=O)O)cn1 [compound 24] | moderate shift |
| Nc1nccnc1C(=O)O [compound 23] | minimal shift |
| CC(C)Nc1nccnc1C(=O)[O-].[Na+] [compound 55, Sodium 3-(2-propylamino)pyrazine-2-carboxylate] | moderate shift |

— article PMC10551889 (Bioorganic & medicinal chemistry, 2022)
